Laboratory results published in PMC8695704 (RSC Advances, 2021).

Target: T1, recombinant human S-COMT (Homo sapiens, UniProt P21964)
T1 sequence (P21964 1-221 isoform P21964-2): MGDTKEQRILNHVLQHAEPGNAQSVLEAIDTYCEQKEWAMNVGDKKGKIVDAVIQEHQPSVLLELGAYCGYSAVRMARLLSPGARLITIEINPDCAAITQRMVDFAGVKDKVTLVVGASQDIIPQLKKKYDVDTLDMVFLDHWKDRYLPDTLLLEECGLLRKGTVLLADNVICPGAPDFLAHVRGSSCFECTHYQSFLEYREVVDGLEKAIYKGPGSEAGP
Assay: COMT inhibition assay with the fluorescent probe substrate 3-BTD
Assay type: biochemical
Conditions: IC50, 3-BTD as substrate

IC50 [µM] | Compound
0.221 ± 0.032 | O=C(O)[C@H]1O[C@@H](Oc2cc3oc(-c4ccc(O)cc4)cc(=O)c3c(O)c2O)[C@H](O)[C@@H](O)[C@@H]1O [Scutellarin, scutellarin]
24.1 ± 4.96 | COc1c(O)cc(O)c2c(=O)cc(-c3ccccc3)oc12 [Wogonin, wogonin]
